# In patent US11478526B2, “Methods of reducing neuroinflammation or toxicity induced by amyloid beta (abeta) using glucocorticoid induced leucine zipper (GILZ) analog peptides” (INDIANA UNIVERSITY RESEARCH AND TECHNOLOGY CORPORATION, priority 2016, dated 2022):
# pIC50: −log10 of the molar value. Like-named read-outs stand apart in the source and are kept apart here.
# Assays:
# Aβ1-42 exposed HFB cells = assay: Cytokines in culture medium of Aβ1-42 exposed HFB; type: cell-based, human; settings: PGA at IC50 concentration
# U373 cells [1] = type: cell-based, human
# Method: (§1) Lactate dehydrogenase (LDH) assay: To detect direct GA-induced cell lysis we performed LDH release assays (Roche Molecular Diagnostics). […] Approximately 5×10^4 U373 cells/well were cultured in 96-well plates in the presence of increasing concentrations of individual GA or control peptide from 0.5 μM to 500 μM. Cells treated with 2% triton-X 100 (Sigma Aldrich, St. Louis, Mo.) for 10 minutes served as positive control. Untreated cells served as controls for spontaneous LDH-release. Specific LDH-release was calculated according to the following formula: LDH-release %=100*(GA or control peptide treated cells—untreated cells)/(positive control-untreated cells). The IC50 values were extrapolated by logarithmic estimation. The LD50 in mg/kg was predicted using the formula, Log (LD50)=0.506×(log IC50)+0.475.
# Effects of PGA on membrane integrity and apoptosis: The top five PGA were covalently synthesized with the cell penetrating TAT (transcriptional transactivation) peptide to facilitate intracellular delivery (Genescript, N.J.). Membrane integrity of U373 microglial cells exposed to increasing concentration of each PGA from 0.5 μm to 500 μM was assessed by the leakage of intracellular lactate dehydrogenase (LDH) into culture medium (Roche, Ind.).
# U373 cells [2] = assay: Annexin-V and propidium iodide apoptosis by flow cytometry; type: cell-based, human; settings: score 1/0
# Method: Detection apoptosis by flow cytometry: To further assess cell cytotoxicity, the apoptotic effects of individual GA or control peptide was evaluated by the Annexin-V and propidium iodide (PI) dual staining method (Annexin-V-Fluos staining kit, Roche Diagnostics, Mannheim, Germany). As opposed to apoptotic cells, necrotic cells with ruptured cell membrane take up PI, the DNA binding dye. Thus, cells which take up both fluorochromes are a mixture of apoptotic and necrotic cells, whereas cells that exclude PI but bind Annexin V are (early) apoptotic cells. U373 cells cultured with varying concentrations of individual GA or control peptide (0.5 μM to 50 μM) for 24 hours were centrifuged and suspended in 100 μl of Annexin V/PI labelling solution (20 μl each of Annexin-V-Fluos labelling reagent and PI in 1 ml of binding buffer) for 15 min at room temperature. After washing the cells were resuspended in PBS:1% paraformaldehyde and analyzed using a FACScan flow cytometer (BD Biosciences, San Jose, Calif.).
# HFNC = assay: Morphology of HFNC under inverted bright field microscope; type: cell-based, human
# [3] = LD50 predicted from in-vitro IC50 by regression (Speilmann method); settings: for LD50 estimated from IC50: Log (LD50)=0.506×(log IC50)+0.475, body weight; for LD50 (mM): score 1/0
# Method: as §1, with “IC50)+0.475. […]” for “IC50)+0.475.”
# [4] = test system: LPS induced neuroinflammation; assay: LPS induced neuroinflammation: real time PCR of brain tissue; type: in vivo, mouse; settings: 25 mg/kg i.v. alternate days, day 7
# Method: (§2) Animals and lipopolysaccharide induced neuroinflammation: Male C57/6J mice weighing 32 to 37 grams were housed five per cage at a temperature of 22±2° C. with 12 hour light/12 hour dark cycles with free access to laboratory food and water. Lipopolysaccharides (LPS) from Escherichia coli 026:B6, =10,000 EU/mg, purified by phenol extraction was purchased from Sigma (Sigma Aldrich, Mo., USA). The mice were randomly divided into seven groups: LPS, LPS+GA-1 or GA-2 or CP-1 or CP-2 or CP-3 or TAT. The LPS was administered intraperitoneally at […] in 100 μl of sterile saline followed by corn oil in the morning daily for six days. The GA or CP was administered intravenously at 25 mg/kg in 100 μl of sterile saline on alternate days. Additional control group included mice receiving saline alone. All animals were sacrificed on day 7.
# Real time polymerase chain reaction. Total cellular RNA was isolated from each brain tissue using Qiagen kit (Invitrogen, Carlsbad, Calif.) following manufacturer's protocol and reverse transcribed using iScript cDNA synthesis kit (Biorad, Calif.). Equal amount of cDNA measured by the Nanodrop (ThermoFisher Scientific, Waltham, USA) was used for amplification of IL-1β, IL-12, CD14, BclXL and Bcl2. Real time PCR was performed using SYBR green/ROX qPCR master mix (SA Biosciences, Frederick, Md.) on the ABI Prism 7000 sequence detection system (Applied Biosystem, Foster City, Calif., USA). Each reaction contains 2×12.5 μl of master mix, 1 μl of 10 μM of primers and 50 ng of the cDNA, to a total volume of 25 μl. The thermal cycling conditions included an initial denaturation step at 50° C. for 2 min, 95° C. for 3 min, 39 cycles at 95° C. for 30 s, annealing temperature at 62° C. for 30 s and extension at 72° C. for 30 s.
# The gene specific threshold cycle (Ct) for each sample (ΔCt) was corrected by subtracting the Ct for the housekeeping gene β-actin. Untreated controls were chosen as the reference samples. The ΔCt for all experimental samples was subtracted by the ΔCt for the control samples (ΔΔCt).The difference in each gene specific threshold between the sample from vehicle treated and GA or CP treated cells was determined to obtain the relative change in the specific mRNA. The magnitude of change in the mRNA was expressed as 2^−ΔΔCt. Each measurement of a sample was performed in duplicates.
# [5] = test system: LPS induced neuroinflammation; assay: LPS induced neuroinflammation: cytokine ELISA of brain homogenates; type: in vivo, mouse; settings: 25 mg/kg i.v. alternate days, day 7
# Method: as §2
# Enzyme linked immunosorbent assay for cytokines: Frozen brain tissue was homogenized in RIPA lysis buffer (50 mmol/LTris-HCl, pH 6.8, 150 mmol/L NaCl, 5 mmol/L EDTA, 0.5% sodium deoxycholate, 0.5% NP-40) supplemented with a cocktail containing protease and phosphatase inhibitors (Chemicon, Millipore) on ice and then centrifuged at 16,000×g for 30 min. Supernatant was stored at −80° C. until further analysis. […]
# [6] = Example 9, PGA synthesized with TAT, read-out: IC50 of LDH release extrapolated from regression analysis
# [7] = concentration stated for use in HFNC cultures, Example 11, read-out: IC50 concentration
Substance,AIL-1p concentration in culture supernatant (not shown) (Aβ1-42 exposed HFB cells),AIL-6 concentration in culture supernatant (Aβ1-42 exposed HFB cells),pIC50 (U373 cells [1]; [6]),pIC50 (U373 cells [1]; [7]),% apoptosis at LD50 (U373 cells [2]),morphology of HFNC (HFNC),LD50 estimated from IC50 [3] [mg/kg],LD50 (mM) [3],relative expression of BCl2 in brain tissues [4],relative expression of BclXL in brain tissues [4],steady-state mRNA for IL-1β in brain tissues [4],IFN-γ in brain tissue [5] [pg/mL],IL-6 in brain tissue homogenates [5] [pg/mL],IL-12 in brain homogenates [5] [pg/mL],TNF-α in brain homogenates [5] [pg/mL],relative expression of CD14 mRNA in brain tissues [4]
Ac-EPAPESPQV-NH2 [PGA-4],significantly lower,significantly lower,5.82,3.99,1 (<25),did not affect the morphology,1693.87,1 (>100),–,–,–,–,–,–,–,–
Ac-EPAPESPQV-NH2 [GA-2],–,–,–,–,–,–,369.42,–,1.9+/−0.9,0.25+/−0.4,decreased levels,3125.1 ± 815,19.6 ± 0.84,101.3 ± 15.9,1199.2 ± 356.4,–
Ac-EPAPLAPYG-NH2 [PGA-2],significantly lower,significantly lower,5.71,3.77,1 (<25),did not affect the morphology,1396.83,1 (>100),–,–,–,–,–,–,–,–
Ac-EPAPLAPYG-NH2 [GA-1],–,–,–,–,–,–,380.44,–,1.25+/−0.5,0.32+/−0.15,decreased levels,2863.2 ± 697.5,18.7 ± 2,92.0 ± 9.3,1500.1 ± 476,0.48+/−0.1
